The values that follow come from patent US4218448A, “Antihypertensive polyfluorohydroxyisopropyl bicyclic and tricyclic carbostyrils” (E. I. Du Pont de Nemours and Company, priority 1977, dated 1980).

Like-named read-outs stand apart in the source and are kept apart here.

The subject of the experiment is DOCA hypertensive rats. Description: Antihypertensive activity in DOCA hypertensive rats (oral), systolic arterial blood pressure. The class given is in vivo. As to conditions: Rattus norvegicus, 1.5 h, read-out: ED50. The method, then:
Rats are made hypertensive by subcutaneous implantation of pellets of desoxycorticosterone acetate (DOCA) and by giving saline solution to drink essentially according to the method described by Sturtevant [Annals of Internal Medicine, 49, 1281 (1958)]. Graded dose levels of each compound are administered orally to groups of 8 hypertensive rats. The compound is prepared in an aqueous polyvinyl alcohol/acacia vehicle and administered at a volume to body weight ratio of 5.0 ml/kg. Sixteen hypertensive rats receiving the aqueous vehicle by the same route serve as controls for each test. At various intervals of time after treatment, usually 90 minutes, the systolic arterial blood pressure of each rat is determined by a modification of the microphone-manometer technique [Friedman, M. and Freed, S. C., Proc. Soc. Exp. Biol, and Med., 70, 670 (1949)]. […]

The mark [1] stands for this setting: oral, groups of 8 DOCA hypertensive rats, usually 90 minutes after treatment, dose producing 30 mm Hg reduction in blood pressure vs controls (Effective Dose 30, ED30).

With `Cc1cc(=O)n2c3c(cc(C(O)(C(F)(F)F)C(F)(F)F)cc13)C(C)CC2` (centres unmarked), the ED (30 mm Hg) under setting [1] came to 3.6 mg/kg.

On to `Cc1cc(=O)n2c3c(cc(C(O)(C(F)(F)F)C(F)(F)F)cc13)C(C)C2` (centres unmarked), for which the ED (30 mm Hg) under setting [1] came to 0.6 mg/kg.

As for `Cc1cc(=O)n2c3c(cc(C(O)(C(F)(F)F)C(F)(F)F)cc13)CCC2` [Example 1, 2,3-dihydro-9-[2,2,2-trifluoro-1-hydroxy-1-(trifluoromethyl)ethyl]-7-methyl-1H,5H-benzo[ij]quinolizin-5-one], the ED (30 mm Hg) under setting [1] was 1 mg/kg.

Turning to `Cc1cc(=O)n2c3c(cc(C(O)(C(F)(F)F)C(F)(F)F)cc13)CCC2C` (centres unmarked) [Example 2, 2,3-dihydro-3,7-dimethyl-9-[2,2,2-trifluoro-1-hydroxy-1-(trifluoromethyl)ethyl]-1H,5H-benzo-[ij]quinolizin-5-one], under setting [1], the ED (30 mm Hg) was 0.66 mg/kg.

Turning to `CCc1cc(=O)n2c3c(cc(C(O)(C(F)(F)F)C(F)(F)F)cc13)CCC2` [Example 8, 2,3-dihydro-7-ethyl-9-[2,2,2-trifluoro-1-hydroxy-1-(trifluoromethyl)-ethyl]-1H,5H-benzo[ij]quinolizin-5-one], the ED (30 mm Hg) under setting [1] amounted to 0.27 mg/kg.

Turning to `Cc1c(Cl)c(=O)n2c3c(cc(C(O)(C(F)(F)F)C(F)(F)F)cc13)CCC2` [Example 9, 6-chloro-2,3-dihydro-9-[2,2,2-trifluoro-1-hydroxy-1-(trifluoromethyl)ethyl]-7-methyl-1H,5H-benzo[ij]quinolizin-5-one], the ED (30 mm Hg) (po) stood at 1.6 mg/kg.

With `Cc1c(Br)c(=O)n2c3c(cc(C(O)(C(F)(F)F)C(F)(F)F)cc13)CCC2` [Example 10], under setting [1], the ED (30 mm Hg) turned out to be 9 mg/kg.

Regarding `Cc1cc(=O)n2c3c(cc(C(O)(C(F)(F)F)C(F)(F)F)cc13)CC2` [Example 11, 1,2-dihydro-8-[2,2,2-trifluoro-1-hydroxy-1-(trifluoromethyl)ethyl]-6-methyl-4H-pyrrolo[3,2,1-ij]quinolin-4-one], the ED (30 mm Hg) under setting [1] was determined as 0.13 mg/kg.

Turning to `Cc1c([N+](=O)[O-])c(=O)n2c3c(cc(C(O)(C(F)(F)F)C(F)(F)F)cc13)CC2` [Example 12, 1,2-dihydro-8-[2,2,2-trifluoro-1-hydroxy-1-(trifluoromethyl)-ethyl]-6-methyl-5-nitro-4H-pyrrolo[3,2,1-ij]quinolin-4-one], the ED (30 mm Hg) under setting [1] is 1.5 mg/kg.

Regarding `Cc1c(N)c(=O)n2c3c(cc(C(O)(C(F)(F)F)C(F)(F)F)cc13)CC2` [Example 13, 1,2-dihydro-8-[2,2,2-trifluoro-1-hydroxy-1-(trifluoromethyl)-ethyl]-5-amino-6-methyl-4H-pyrrolo[3,2,1-ij]quinolin-4-one], under setting [1], the ED (30 mm Hg) was found to be 5.4 mg/kg.

Regarding `Cc1cc(=O)n2c3c(cc(C(O)(C(F)(F)F)C(F)(F)F)cc13)CC2C` (centres unmarked) [Example 14, 1,2-dihydro-2,6-dimethyl-8-[2,2,2-trifluoro-1-hydroxy-1-(trifluoromethyl)-ethyl]-4H-pyrrolo[3,2,1-ij]quinolin-4-one], under setting [1], the ED (30 mm Hg) came out at 0.047 mg/kg.

Take `CCc1cc(=O)n2c3c(cc(C(O)(C(F)(F)F)C(F)(F)F)cc13)CC2` [Example 22, 1,2-dihydro-6-ethyl-8-[2,2,2-trifluoro-1-hydroxy-1-(trifluoromethyl)ethyl]-4H-pyrrolo[3,2,1-ij]quinolin-4-one]: the ED (30 mm Hg) under setting [1] came out at 0.11 mg/kg.

For `Cc1cc(=O)n2c3c(cc(C(O)(C(F)(F)F)C(F)(F)F)cc13)CCCC2` [Example 23, 5,6,7,8-tetrahydro-10-[2,2,2-trifluoro-1-hydroxy-1-(trifluoromethyl)ethyl]-1-methyl-3H-azepino[3,2,1-ij]quinolin-3-one], the ED (30 mm Hg) under setting [1] amounted to 1.3 mg/kg.

As to `Cc1cc(=O)[nH]c2ccc(C(O)(C(F)(F)F)C(F)(F)F)cc12` [Example 24, 6-(2,2,2-trifluoro-1-hydroxy-1-(trifluoromethyl)ethyl)-4-methyl-2(1H)-quinolinone], the ED (30 mm Hg) under setting [1] is 4.1 mg/kg.

`Cc1cc(=O)[nH]c2c(C)cc(C(O)(C(F)(F)F)C(F)(F)F)cc12` [Example 25]: the ED (30 mm Hg) under setting [1] came out at 3.7 mg/kg.

In the case of `CCc1cc(C(O)(C(F)(F)F)C(F)(F)F)cc2c(C)cc(=O)[nH]c12` [Example 26], under setting [1], the ED (30 mm Hg) is 1.3 mg/kg.

Take `CCn1c(=O)cc(C)c2cc(C(O)(C(F)(F)F)C(F)(F)F)ccc21` [Example 31, 1-ethyl-6-[2,2,2-trifluoro-1-hydroxy-1-(trifluoromethyl)ethyl]-4-methyl-2(1H)-quinolinone]: the ED (30 mm Hg) under setting [1] is 1.2 mg/kg.

Regarding `Cc1cc(=O)n(C)c2ccc(C(O)(C(F)(F)F)C(F)(F)F)cc12` [Example 32], the ED (30 mm Hg) under setting [1] stood at 0.4 mg/kg.

With `CCCCn1c(=O)cc(C)c2cc(C(O)(C(F)(F)F)C(F)(F)F)ccc21` [Example 34], the ED (30 mm Hg) under setting [1] is 5.2 mg/kg.

For `O=c1ccc2cc(C(O)(C(F)(F)F)C(F)(F)F)cc3c2n1CCC3` [Example 42, 2,3-dihydro-9-[2,2,2-trifluoro-1-hydroxy-1-(trifluoromethyl)ethyl]-1H,5H-benzo[ij]quinolizin-5-one], the ED (30 mm Hg) under setting [1] was 3 to 9 mg/kg.

With `CCC(=O)OC(c1cc2c3c(c1)c(C)cc(=O)n3CC2)(C(F)(F)F)C(F)(F)F` [Example 43, 1,2-dihydro-8-[2,2,2-trifluoro-1-hydroxy-1-(tri-fluoromethyl)ethyl]-6-methyl-4H-pyrrolo[3,2,1-ij]quinolin-4-one propanoate], under setting [1], the ED (30 mm Hg) was 0.22 mg/kg.

Consider `CC(=O)OC(c1cc2c3c(c1)c(C)cc(=O)n3CC2)(C(F)(F)F)C(F)(F)F` [Example 44, 1,2-dihydro-8-[2,2,2-trifluoro1-hydroxy-1-(trifluoromethyl)ethyl]-6-methyl-4H-pyrrolo[3,2,1-ij]quinolin-4-one acetate], for which, under setting [1], the ED (30 mm Hg) turned out to be 0.2 mg/kg.

Take `CCCCCCCCCCCC(=O)OC(c1cc2c3c(c1)c(C)cc(=O)n3CC2)(C(F)(F)F)C(F)(F)F` [Example 45, 1,2-dihydro-8-[2,2,2-trifluoro-1-hydroxy-1-(trifluoromethyl)ethyl]-6-methyl-4H-pyrrolo[3,2,1-ij]quinolin-4-one laurate]: under setting [1], the ED (30 mm Hg) came to 0.12 mg/kg.

In the case of `Cc1cc(=O)n2c3c(cc(C(OC(=O)c4ccccc4)(C(F)(F)F)C(F)(F)F)cc13)CC2` [Example 46], under setting [1], the ED (30 mm Hg) was 0.25 mg/kg.

Take `COC(c1cc2c3c(c1)c(C)cc(=O)n3CC2)(C(F)(F)F)C(F)(F)F` [Example 50, 1,2-dihydro-8-[2,2,2-trifluoro-1-methoxy-1-(trifluoromethyl)-ethyl]-6-methyl-4H-pyrrolo[3,2,1-ij]quinolin-4-one]: the ED (30 mm Hg) under setting [1] is 0.35 mg/kg.

Take `CCOC(c1cc2c3c(c1)c(C)cc(=O)n3CC2)(C(F)(F)F)C(F)(F)F` [Example 51]: the ED (30 mm Hg) under setting [1] worked out at 0.5 mg/kg.

As for `Cc1cc(=O)n2c3c(cc(C(O)(C(F)F)C(F)(F)F)cc13)CC2` (centres unmarked) [Example 52, 1,2-dihydro-8-[2,2,-difluoro-1-hydroxy-1-(trifluoromethyl)ethyl]-6-methyl-4H-pyrrolo[3,2,1-ij]quinolin-4-one], under setting [1], the ED (30 mm Hg) is 0.075 mg/kg.

Turning to `Cc1cc(=O)n2c3c(cc(C(O)(C(F)(F)F)C(F)(F)Cl)cc13)CC2` (centres unmarked) [Example 53, 1,2-dihydro-8 [2-chloro-2,2-difluoro-1-hydroxy-1-(trifluoromethyl)ethyl]-6-methyl-4H-pyrrolo[3,-2,1-ij]quinolin-4-one], under setting [1], the ED (30 mm Hg) was found to be 0.07 mg/kg.

Take `Cc1cc(=O)n2c3c(cc(C(O)(C(F)F)C(F)F)cc13)CC2` [Example 54]: the ED (30 mm Hg) under setting [1] worked out at 1.2 mg/kg.
